Values joined by “and” are separate entries in the source; they are usually repeats but may differ in a detail not shown here. Equal entries are not always repeated.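 1) Cells in 96-well plates. 2) Compound, 48 h, 5 concentrations. 3) Linear interpolation between surrounding doses. 4) Unreached endpoint = highest concentration. Abbreviation: GI50, concentration required for 50% inhibition of growth. TGI marks complete inhibition of growth.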
Columns and labels:
Test in all cases: DTP human tumour cell line panel, 48 h
[1] = system: PC-3 prostate
[2] = system: NCI-H226 lung
[3] = system: HOP-92 NSCLC
[4] = system: MDA-MB-231 breast
[5] = system: IGROV1 ovarian
[6] = system: UACC-62 melanoma
[7] = system: SF-268 CNS
[8] = system: LOX IMVI melanoma

SMILES | GI50 [1] | TGI [1] | GI50 [2] | TGI [2] | GI50 [3] | TGI [3] | GI50 [4] | TGI [4] | GI50 [5] | TGI [5] | GI50 [6] | TGI [6] | GI50 [7] | TGI [7] | GI50 [8] | TGI [8]
CCNC(=O)C#Cc1ccc2c(C(=Nc3ccc(CN(C)C)cc3)c3ccccc3)c(O)[nH]c2c1 | 0.238 µM | > 4.79 µM | 0.314 µM | > 10 µM | 0.00812 µM | 0.0532 µM | 0.0295 µM | 0.502 µM | 0.0511 µM | > 3.29 µM | 0.00709 µM | 0.0775 µM | 1.35 µM | > 9.48 µM | 0.0067 µM | 0.163 µM
Cn1cc(-c2cc3c(N4CCN(c5ncc([C@@](C)(N)c6ccc(F)cc6)cn5)CC4)ncnn3c2)cn1 | 1.99 µM | > 100 µM |  |  |  |  | 4.77 µM | > 100 µM | 2.7 µM | > 100 µM | 5.23 µM | > 100 µM |  |  | 3.27 µM | > 100 µM
CN1CCN(c2ccc(Nc3ncc(Cl)c(NC[C@@H]4CCCO4)n3)cc2)CC1 | 2.24 µM | > 100 µM | 0.266 µM | 6.47 µM | 1.68 µM | 6.44 µM | 1.62 µM | 8.29 µM | 1.56 µM | > 100 µM | 1.95 µM | 10.5 µM | 1.55 µM | 12.9 µM | 0.826 µM | 6.83 µM
O=C(Nc1cccc(C(F)(F)F)c1)Nc1cccc(C(F)(F)F)c1 | 0.374 µM | 12.5 µM | 1.01 µM | 3.66 µM | 0.786 µM | 6.08 µM | 1.47 µM | 3.29 µM | 0.868 µM | 10.3 µM | 0.702 µM | 2.66 µM | 2.1 µM | 10.9 µM | 1 µM | 2.28 µM
NC(=S)N/N=C1\c2cc(Cl)ccc2-c2c1cc(Cl)cc2[N+](=O)[O-] | 3.21 µM | > 100 µM | 5.25 µM | > 100 µM | 2.22 µM | 13.1 µM | 3.85 µM | 34.9 µM | 5.68 µM | > 100 µM | 3.16 µM | > 100 µM | 9.79 µM | > 100 µM | 9.35 µM | > 100 µM
Cc1cc2c(cc1C)[n+](=O)c(C(=O)c1ccccc1)c(C(F)F)n2[O-] | 16.1 µM | > 100 µM | 25.5 µM | 72.9 µM | 37.7 µM | > 100 µM | 30.4 µM | > 100 µM | 15.1 µM | > 100 µM | 18.4 µM | 96.9 µM | 13 µM | > 100 µM | 10.3 µM | > 100 µM
CC(=O)Nc1cc2ccc(=O)oc2cc1Cl |  | > 100 µM |  | > 100 µM |  | > 100 µM |  | > 100 µM |  | > 100 µM |  | > 100 µM |  | > 100 µM |  | > 100 µM
CN(C)CC(O)c1ccc(/C=C/c2ccc(Cl)cc2)cc1 (stereo not drawn) | 1.42 µM | 3.09 µM | 11.9 µM | 27.3 µM | 1.26 µM | 3.13 µM | 1.7 µM | 3.14 µM | 1.21 µM | 2.64 µM | 1.62 µM | 3.02 µM | 1.49 µM | 2.88 µM | 1.63 µM | 2.98 µM
CCOC(=O)n1cc(C2=C(c3ccc(OC)c(OC)c3)COC2=O)c2ccccc21 | 0.0404 µM | > 100 µM | 0.0548 µM | > 100 µM | 0.161 µM | > 52.8 µM | 0.16 µM | > 100 µM | 0.0555 µM | > 100 µM | 0.0436 µM | > 100 µM | 0.262 µM | > 100 µM | 0.0623 µM | > 100 µM
Cc1cc(Nc2ccc(C)c(Cl)c2)n2nc(C(F)(F)F)nc2n1 | 22 µM | > 100 µM | 23.2 µM | > 100 µM | 18 µM | 59.4 µM | 23.7 µM | > 100 µM | 26.7 µM | > 100 µM | 19.6 µM | 50.1 µM | 28.3 µM | > 100 µM | 26.5 µM | 73.9 µM
NC(N)=NS(=O)(=O)c1ccc(N=Nc2c(O)c(C(=O)O)cc3ccccc23)cc1 |  | > 100 µM |  | > 100 µM |  | > 100 µM |  | > 100 µM |  | > 100 µM |  | > 100 µM |  | > 100 µM |  | 
O=C1CSC(=S)N1/N=C/c1ccc(Cl)c([N+](=O)[O-])c1 |  | 65.6 µM |  | > 100 µM |  | 67.7 µM |  | 48 µM |  | > 100 µM |  | 64.8 µM |  | 40.2 µM |  | 47.7 µM
COC1=CC(=O)C(C2(OC(C)C)OC(=O)C(Cl)=C2Cl)=CC1=O (stereo not drawn) |  | > 100 µM |  | > 100 µM |  | > 100 µM |  | > 100 µM |  |  |  | > 100 µM |  | > 100 µM |  | > 100 µM
Nc1nc2[nH]cc(CCc3ccc(C(=O)N[C@@H](CCC(=O)O)C(=O)O)cc3)c2c(=O)[nH]1 | > 51.9 µM | > 100 µM |  | > 100 µM |  | > 100 µM | > 100 µM | > 100 µM |  | > 100 µM |  | > 100 µM | 0.219 µM | > 100 µM | 0.111 µM | > 100 µM
C=CC(=O)Nc1cc(Nc2nccc(-c3cn(C)c4ccccc34)n2)c(OC)cc1N(C)CCN(C)C | 2.74 µM and 2.11 µM | 12.1 µM and 5.55 µM | 3.93 µM and 1.39 µM | 13.1 µM and 3.4 µM | 0.793 µM and 0.416 µM | 8.39 µM and 3.49 µM | 1.59 µM and 1.7 µM | 3.45 µM and 3.6 µM | 1.14 µM and 0.407 µM | 7.58 µM and 2.68 µM | 1.85 µM and 1.71 µM | 3.61 µM and 3.4 µM | 1.95 µM and 1.87 µM | 7.02 µM and > 10 µM | 1.75 µM and 1.41 µM | 3.55 µM and 2.86 µM
Fc1cc(-c2nnc3n2N=C(c2ccc(Cl)cc2)CS3)c(Cl)cc1Cl | 16.6 µM | 31.6 µM | 17.8 µM | 40.6 µM | 13.7 µM | 36.1 µM | 6.57 µM | 18.2 µM | 4.25 µM | > 37.6 µM | 4.3 µM | 14.9 µM | 13.9 µM | 33.1 µM | 1.77 µM | 3.86 µM
C/C=C/[C@@H]1O[C@@H]2COC(=O)C2=C[C@@H]1O | 18.7 µM | 36.6 µM | 17.6 µM | 42 µM | 0.747 µM | 9.35 µM | 19.6 µM | 39.7 µM | 18.6 µM | > 84 µM | 17.5 µM | 34.6 µM | 24.2 µM | 63.9 µM | 17.5 µM | 36.1 µM

Reference: PubChem BioAssay (NCI)
